Experimental data published in PubChem BioAssay (NCI).
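Test compounds were applied to cells in 96-well plates for 48 hours at 5 doses. Here, GI50 denotes the concentration required for 50% inhibition of growth. Definition used: TGI = concentration required for complete inhibition of growth.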

Columns and labels:
Test in all cases: inhibition of tumour cell growth, NCI panel, 48 h
OVCAR-4 ovarian = system: OVCAR-4 ovarian
HCT-116 colon = system: HCT-116 colon
TK-10 renal = system: TK-10 renal
OVCAR-8 ovarian = system: OVCAR-8 ovarian
SF-268 CNS = system: SF-268 CNS
MDA-MB-435 = system: MDA-MB-435
MDA-MB-231 breast = system: MDA-MB-231 breast
A549 NSCLC = system: A549 NSCLC
MOLT-4 leukemia = system: MOLT-4 leukemia
RXF 393 renal = system: RXF 393 renal

Compound | TGI (OVCAR-4 ovarian) | TGI (HCT-116 colon) | TGI (TK-10 renal) | TGI (OVCAR-8 ovarian) | TGI (SF-268 CNS) | TGI (MDA-MB-435) | TGI (MDA-MB-231 breast) | TGI (A549 NSCLC) | TGI (MOLT-4 leukemia) | TGI (RXF 393 renal) | GI50 (OVCAR-4 ovarian) | GI50 (TK-10 renal) | GI50 (OVCAR-8 ovarian) | GI50 (SF-268 CNS) | GI50 (MOLT-4 leukemia) | GI50 (MDA-MB-435) | GI50 (MDA-MB-231 breast) | GI50 (A549 NSCLC)
COc1cc(/C=C/C(=O)C2(C(=O)/C=C/c3cc(OC)c(OC)c(OC)c3)CCCCC2)cc(OC)c1OC | > 100 µM | > 100 µM | > 100 µM | 65.2 µM | > 100 µM | 42.5 µM | > 100 µM | > 100 µM |  |  |  |  |  |  |  |  |  | 
Nc1nc2c3nc(Nc4ccccc4)sc3nc(=O)n2c2sc(Nc3ccccc3)nc12 | > 100 µM | > 100 µM |  | > 100 µM | > 100 µM |  |  | > 100 µM | > 100 µM | > 100 µM |  |  |  |  |  |  |  | 
COc1cc2c(cc1OCCCC(=O)Nc1ccc3ccc4cccc5ccc1c3c45)N=C[C@@H]1CCCN1C2=O | 10.1 µM |  | 0.237 µM | < 0.0245 µM | 0.864 µM | 3.07 µM | 0.051 µM |  | 0.355 µM |  | < 0.01 µM | 0.0384 µM | < 0.0134 µM | 0.27 µM | 0.0987 µM | 1.61 µM | 0.0135 µM | < 0.021 µM
NC(=S)N/N=C\c1nccc2ccccc12 | 1.2 µM | > 59.4 µM | 39.8 µM | 0.925 µM | 1.47 µM | > 100 µM | 35.7 µM | > 100 µM | 0.827 µM |  |  |  |  |  |  |  |  | 
CCC(=O)Nc1ccc(N2C(=O)C(Cl)C2c2ccc(SC)cc2)cc1 (configuration not stated) | > 100 µM | > 100 µM |  | > 100 µM | > 100 µM | > 100 µM |  | > 100 µM | > 100 µM | > 100 µM |  |  |  |  |  |  |  | 
COC(=O)C1(C)C=CC(=O)C2(C)C1C(O)C1OC3CC(c4ccoc4)C(C)=C3C1(C)C2CC(=O)O (configuration not stated) | > 100 µM | > 100 µM | > 100 µM | > 100 µM | > 100 µM | > 100 µM | > 100 µM | > 100 µM | > 100 µM |  |  |  |  |  |  |  |  | 
O=C1CC(c2ccccc2)n2cccc21 (configuration not stated) | > 100 µM | > 100 µM | > 100 µM | > 100 µM | > 100 µM | > 100 µM | > 100 µM | > 100 µM |  | > 100 µM |  |  |  |  |  |  |  | 
COc1cc(/C=c2\sc3n(c2=O)C(c2ccc(Cl)cc2)C2=C(CCCC2C)N=3)cc(OC)c1OC (configuration not stated) |  | > 100 µM | > 100 µM | > 100 µM | > 100 µM | > 100 µM | > 100 µM | > 100 µM | > 100 µM | > 100 µM |  |  |  |  |  |  |  | 
CC(C)/C(Cl)=N\OC(=O)Nc1cccc(Cl)c1 | 27 µM | 36.2 µM | 28.6 µM | 29.4 µM | 47.2 µM |  | 30.3 µM | 35.7 µM | 7.88 µM | 32.5 µM |  |  |  |  |  |  |  | 
CC(=O)C1CC[C@@H]2[C@H](CC[C@]3(C)[C@@H](O)CC[C@@H]23)[C@H]1C(=O)O (some centres not stated) | > 100 µM |  | > 100 µM | > 100 µM | > 100 µM | > 100 µM | > 100 µM | > 100 µM | > 100 µM | > 100 µM |  |  |  |  |  |  |  | 
